Laboratory results reported in patent publication US20220288026A1, “METHODS OF TREATING KIDNEY DISEASES” (priority 2019, published 2022).
Entries after “also recorded” stand apart in the source; their conditions may differ. Like-named read-outs stand apart in the source and are kept apart here.

Legend:
[1] = tested on: primary human renal mesangial cells (HRMCs); assay: Proliferation (BrdU) of HRMCs stimulated with IgA-containing immune complexes; type: cell-based
Source text: Primary human mesangial cells in a culture were stimulated with pathogenic galactose deficient (Gd)-IgA containing immune complexes isolated from human IgA nephropathy patients.
Specifically, pathogenic IgA-containing immune complexes were isolated from serum from either IgA nephropathy patients or age, gender and ethnicity-matched healthy individuals. Frozen serum was purchased from BioIVT and IgA-containing immune complexes were purified using jacalin affinity chromatography. […] Purified IgA-containing immune complexes were concentrated using a 100K Amicon filtration unit and the amount of total IgA and galactose-deficient IgA (Gd-IgA) in the immune complexes was measured by ELISA (ThermoFisher and IBL America, respectively). […] See, e.g., Novak et. al., Kidney International, 67, pp. 504-516; 2005; Novak et. al., Nephrol. Dial. Transplant, 26, pp. 3451-3457; 2011; Liang et. al., Cell Physiol. Biochem., 36, pp. 1793-1808; 2015; Nguyen et. al., Clin. Kidney J., 12 (2), pp, 232-238; 2019.

[2] = tested on: kidney tissue of g-ddY mice; assay: Ingenuity Pathway Analysis (IPA) canonical pathways, g-ddY kidney RNA-seq; type: in vivo, mouse; conditions: 30 mg/kg/day
Description: (§1) RNA isolation and sequencing libraries were generated using standard protocols. Sequencing was performed using an Illumina NextSeq500 using manufacturer's instructions with a read length of 75 bp and a read depth of 30 million. Raw data was assembled to FASTQ files. Following QC analysis, high quality sequencing reads (e.g., reads with a Phred quality score >36) were aligned to the mouse reference genome (GRCm38-mm10) using the default parameters of the align algorithm and transcript count tables of each library was generated using the default parameters of the featureCounts algorithm of the RSubread package (Liao Y, Smyth G K, Shi W, 2019). High quality sequencing reads mapped to 27,129 genes. Following additional QC of low count filtering (i.e. transcripts <10 counts across all samples), 16,207 genes were identified and used for further analysis. The remaining sequencing read counts of the included 16,207 genes were normalized to library size, log-transformed, and were quantified as counts per million (CPM). Select RNA-seq counts were validated using qPCR.

[3] = tested on: kidney tissue of g-ddY mice; assay: Gene Set Enrichment Analysis (GSEA) hallmark gene sets, g-ddY kidney RNA-seq; type: in vivo, mouse
Description: as §1

[4] = tested on: kidney tissue of g-ddY mice
[5] = tested on: kidney tissue of g-ddY mice; assay: IPA upstream regulator analysis, g-ddY kidney RNA-seq; type: in vivo, mouse; conditions: 30 mg/kg/day
[6] = tested on: patients with diabetic kidney disease (DKD); conditions: cited from earlier work
g-ddY mice = assay: UACR (albuminuria) in g-ddY mouse model of IgA nephropathy; type: in vivo
Source text: The grouped ddY (g-ddY) mouse is a spontaneous model of early-onset IgA nephropathy characterized by IgA immune complex deposition in the mesangium of the kidney, leading to significant proteinuria, glomerular hypercellularity, mesangioproliferative glomerular lesions, glomerular sclerosis and reduced kidney function, all hallmarks of human IgA nephropathy (J Am Soc Nephrol 23: 1364-1374, 2012). Consistent with human IgA nephropathy, the mesangial IgA deposits in the g-ddY mouse are also accompanied by deposition of IgG and complement C3.

[7] = 10 mg/kg/day vs untreated control
[8] = 20 mg/kg/day vs untreated control
[9] = 30 mg/kg/day vs untreated control

CCCCN(CCCC)C(=O)CN1C[C@H](c2ccc3c(c2)OCO3)[C@@H](C(=O)O)[C@@H]1c1ccc(OC)cc1 [atrasentan, (2R,3R,4S)-4-(1,3-benzodioxol-5-yl)-1-[2-(dibutylamino)-2-oxoethyl]-2-(4-methoxyphenyl)pyrrolidine-3-carboxylic acid]
basal cell proliferation of HRMCs ([1]; IgA containing serum fractions from healthy controls): no effect on basal cell proliferation | hyperproliferation of HRMCs induced by IgA containing immune complexes ([1]; immune complexes from three patients with IgA nephropathy): reduces the proliferation; also recorded: significantly attenuated the hyperproliferation | IPA: effect on signaling pathways [2]: reduced NF-κB signaling, IL-6 pathway signaling (e.g., STAT3), and PDGF signaling | NF-κB signaling [2]: reduced NF-κB signaling | PDGF signaling [2]: reduced PDGF signaling | NES HALLMARK_REACTIVE_OXYGEN_SPECIES_PATHWAY ([3]; 10 mg/kg/day vs. control): 1.59 | NES HALLMARK_REACTIVE_OXYGEN_SPECIES_PATHWAY ([3]; 20 mg/kg/day vs. control): 1.61 | IL-6 signaling ([3]; 30 mg/kg/day): reduced IL-6 signaling | cell proliferation associated signaling (mitotic spindle and G2M checkpoint) ([3]; 30 mg/kg/day): reduced cell proliferation associated signaling | inflammatory response signaling ([3]; 30 mg/kg/day): reduced inflammatory response signaling | NES HALLMARK_REACTIVE_OXYGEN_SPECIES_PATHWAY ([3]; 30 mg/kg/day vs. control): 1.98 | GSEA: TNFα signaling via NF-κB, epithelial mesenchymal transition, inflammatory response, IL6-JAK-STAT3 signaling, mitotic spindle, G2M checkpoint ([3]; 10, 20, and 30 mg/kg/day): concordant negative enrichment | ET1 gene signature genes downregulated [4, 7]: Grk5, Mllt3, Klf2, Pparg, Hgf, Edn1, Fos, Ptgs2, and IL-1b were downregulated | ET1 gene signature genes upregulated [4, 7]: Ccnd1, Ppara, Agt, Map2k2 and Hoxa9 were upregulated | ET1 gene signature genes downregulated [4, 8]: Nfatc1, Grk5, Klf2, Cav1, Pparg, Itga5, Myc, Ednra, Sell, Hgf, Mmp2, Edn1, Syk, Fos, and IL-1b were downregulated | ET1 gene signature genes upregulated [4, 8]: Ccdn1, Cat, Ppara, Map2k2, Hoxa9, Agt, and Egfr were upregulated | ET1 gene signature genes downregulated [4, 9]: downregulated genes Ednrb, Myc, Mllt3, Hdac7, Ednra, Itga5, Grk5, Pparg, Klf2, Hgf, Mmp2, Sell, Sphk1, Fos, Syk, Edn1, and IL-1b | ET1 gene signature genes upregulated [4, 9]: upregulated genes Ccnd1, Agt, Cat, Map2k2, Hoxa9, and Ppara | ET1 (Edn1) gene expression ([4]; 10, 20, and 30 mg/kg/day): downregulated across all three doses | Predicted Activation State 26s Proteasome [5]: Inhibited | Predicted Activation State ADGRF5 [5]: Activated | Predicted Activation State AGT [5]: Inhibited | Predicted Activation State BMP2 [5]: Inhibited | Predicted Activation State CCL5 [5]: Inhibited | Predicted Activation State CCN5 [5]: Activated | Predicted Activation State CCR2 [5]: Inhibited | Predicted Activation State CD40LG [5]: Inhibited | Predicted Activation State CG [5]: Inhibited | Predicted Activation State CHRM3 [5]: Inhibited | Predicted Activation State CSF2 [5]: Inhibited | Predicted Activation State CSF3 [5]: Inhibited | Predicted Activation State CXCL12 [5]: Inhibited | Predicted Activation State DKK1 [5]: Activated | Predicted Activation State EDN1 [5]: Inhibited | Predicted Activation State EDNRA [5]: Inhibited | Predicted Activation State EGF [5]: Inhibited | Predicted Activation State F2R [5]: Inhibited | Predicted Activation State F3 [5]: Inhibited | Predicted Activation State FAS [5]: Activated | Predicted Activation State FCGR1A [5]: Inhibited | Predicted Activation State FGF2 [5]: Inhibited | Predicted Activation State FGF23 [5]: Inhibited | Predicted Activation State GDF2 [5]: Inhibited | Predicted Activation State GPER1 [5]: Inhibited | Predicted Activation State HGF [5]: Inhibited | Predicted Activation State HTR7 [5]: Inhibited | Predicted Activation State IFNA2 [5]: Inhibited | Predicted Activation State IFNAR1 [5]: Inhibited | Predicted Activation State IFNG [5]: Inhibited | Predicted Activation State IGF1 [5]: Inhibited | Predicted Activation State IGF1R [5]: Activated | Predicted Activation State IL1A [5]: Inhibited | Predicted Activation State IL1B [5]: Inhibited | Predicted Activation State IL2 [5]: Inhibited | Predicted Activation State IL3 [5]: Inhibited | Predicted Activation State IL6 [5]: Inhibited | Predicted Activation State IL6R [5]: Inhibited | Predicted Activation State IL10 [5]: Inhibited | Predicted Activation State IL21 [5]: Inhibited | Predicted Activation State IL33 [5]: Inhibited | Predicted Activation State ILR4 [5]: Inhibited | Predicted Activation State Ifn gamma [5]: Inhibited | Predicted Activation State Ige [5]: Inhibited | Predicted Activation State LDL [5]: Inhibited | Predicted Activation State LGR5 [5]: Activated | Predicted Activation State Laminin (complex) [5]: Activated | Predicted Activation State NFkB (complex) [5]: Inhibited | Predicted Activation State NRG1 [5]: Inhibited | Predicted Activation State OSM [5]: Inhibited | Predicted Activation State PDGF BB [5]: Inhibited | Predicted Activation State PDGFB [5]: Inhibited | Predicted Activation State PF4 [5]: Inhibited | Predicted Activation State PI3K (complex) [5]: Inhibited | Predicted Activation State PLA2R1 [5]: Activated | Predicted Activation State PRL [5]: Inhibited | Predicted Activation State PROKR1 [5]: Activated | Predicted Activation State PTGER4 [5]: Activated | Predicted Activation State Pdgf (complex) [5]: Inhibited | Predicted Activation State SMO [5]: Activated | Predicted Activation State TCR [5]: Inhibited | Predicted Activation State TGFB1 [5]: Inhibited | Predicted Activation State TGFB2 [5]: Inhibited | Predicted Activation State TGFB3 [5]: Inhibited | Predicted Activation State TLR3 [5]: Inhibited | Predicted Activation State TLR9 [5]: Inhibited | Predicted Activation State TNF [5]: Inhibited | Predicted Activation State TNFRSF1A [5]: Inhibited | Predicted Activation State TNFSF11 [5]: Inhibited | Predicted Activation State TNFSF12 [5]: Inhibited | Predicted Activation State TREM1 [5]: Inhibited | Predicted Activation State TSLP [5]: Inhibited | Predicted Activation State TYROBP [5]: Inhibited | Predicted Activation State VEGFA [5]: Inhibited | Predicted Activation State VEGFB [5]: Activated | Predicted Activation State WNT3A [5]: Inhibited | risk of renal events (doubling of serum creatinine or end-stage kidney disease) [6]: significantly reducing the risk of renal events | UACR reduction compared to control group (un-paired t-test) (g-ddY mice; 10 mg/kg/day): not significant | mice with reduced albuminuria/proteinuria (g-ddY mice; 10 mg/kg/day group): ⅔ | albuminuria compared to baseline (paired t-test) (g-ddY mice; 10 mg/kg/day, approximately 5 days): not significantly changed from baseline | UACR reduction compared to control group (un-paired t-test) (g-ddY mice; 20 mg/kg/day, P=0.0498): statistically significant compared to the control group | albuminuria compared to baseline (paired t-test) (g-ddY mice; 20 mg/kg/day, approximately 5 days, P=0.0593): reduced from baseline to a similar extent | UACR reduction compared to control group (un-paired t-test) (g-ddY mice; 30 mg/kg/day, P=0.029): statistically significant compared to the control group | albuminuria compared to baseline (paired t-test) (g-ddY mice; 30 mg/kg/day, approximately 5 days, P=0.0002): reduced albuminuria from baseline | albuminuria reduction from baseline (g-ddY mice; 20 and 30 mg/kg/day, approximately 5 days): > 60%
